The subject of the experiment is STAM mice (NASH). Briefly: STAM model of NASH (Example 2): NAFLD activity score, Sirius red, α-SMA staining. In kind it is in vivo, mouse. Also noted: key to NAFLD Activity: Ballooning Score, mean / NAFLD Activity: Steatosis Score, mean / NAFLD Activity: Inflammation Score, mean / NAFLD Activity Score: raw data / NAFLD Activity: Steatosis Score: raw data / NAFLD Activity: Ballooning Score: raw data: NAS = steatosis (0-3) + inflammation (0-2) + ballooning (0-2). Here is the method: Amino Acid Composition A-1 and Obeticholic acid (6α-ethyl-chenodeoxycholic acid; “OCA”) were tested for their ability to treat NASH in the STAM™ model (Stelic Institute & Co., Tokyo, Japan; Saito K. et al., 2015 Sci Rep 5: 12466). Two additional groups of normal C57BL/6 mice fed standard chow and vehicle treated STAM™ mice were included as controls. All animals receiving treatment or vehicle were treated starting at 6 weeks until 9 weeks of age. Compounds were administered via oral gavage, with a dose volume of 10 ml/kg. Amino Acid Composition A-1 was administered twice daily at a dose of 1500 mg/kg, and OCA was administered once daily at a dose of 30 mg/kg.
STAM™ is a model for non-alcoholic steatohepatitis (NASH) and hepatocellular carcinoma (HCC), developed by SMC Laboratories, Inc. and created by the combination of chemical and dietary interventions using C57BL/6 mice (Saito K. et al., 2015 Sci Rep 5: 12466). Mice are treated with a low dose of streptozotocin at birth and fed a high fat diet starting at 4 weeks. Evidence of fatty liver is present by 5 weeks, followed by NASH by 7 weeks and fibrosis by 9 weeks.
NASH was induced in 53 male mice by a single subcutaneous injection of 200 μg streptozotocin (STZ, Sigma-Aldrich, USA) solution 2 days after birth and feeding with high fat diet (HFD, 57 kcal % fat, Cat #HFD32, CLEA Japan, Japan) after 4 weeks of age.
Amino Acid Composition A-1, OCA and Vehicle (described below) were administered by oral route in a volume of 10 mL/kg. Amino Acid Composition A-1 was solubilized in deionized water to 150 mg/ml (10×). OCA (Advanced ChemBlocks Inc.) was resuspended in 0.5% methylcellulose in water to 3 mg/ml (10×). Amino Acid Composition A-1 was administered at a dose of 1500 mg/kg twice daily (9 am and 7 pm). OCA was administered at a dose of 30 mg/kg once daily (9 am).
Liver samples from mice in Group 2 (Vehicle), 3 (Amino Acid Composition A-1) and 4 (OCA) were used for the following assays. For HE staining, sections were cut from paraffin blocks of liver tissue prefixed in Bouin's solution and stained with Lillie-Mayer's Hematoxylin (Muto Pure Chemicals Co., Ltd., Japan) and eosin solution (Wako Pure Chemical Industries). NAFLD Activity score (NAS) was calculated according to the criteria of Kleiner (Kleiner D. E. et al., Hepatology, 2005; 41:1313).
Group 3: Amino Acid Composition A-1: Ten NASH mice were orally administered water for irrigation supplemented with Amino Acid Composition A-1 at a dose of 1500 mg/kg twice daily (9 am and 7 pm) from 6 to 9 weeks of age.
Group 4: OCA: Ten NASH mice were orally administered 0.5% methylcellulose supplemented with OCA at a dose of 30 mg/kg once daily (9 am) from 6 to 9 weeks of age.
The non-alcoholic fatty liver disease (NAFLD) activity score was assessed via histological analysis and grading of H&E stained liver sections from each animal. This score is the sum of three individual scores that grade the degree of steatosis (0-3), inflammation (0-2), and hepatocyte ballooning (0-2). All tissues were graded using the scoring criteria of Kleiner et al. (Kleiner et al. Hepatology. 2005; 41(6): 1313-21). Data are mean±standard deviation (stdev). […] Both Amino Acid Composition A-1 and OCA were statistically different from vehicle for NAFLD Activity Score when compared using Dunnett's multiple comparisons test (Amino Acid Composition A-1 p=0.0001, OCA p=0.0001).
Fibrosis was assessed by analysis of Sirius red positively stained cell area from stained liver sections from each animal. Images were quantified using the percent of positively stained area was used as a measure of fibrosis. Data are mean±standard deviation (stdev). […] Amino Acid Composition A-1 and OCA were statistically different from vehicle when compared using Dunnett's multiple comparisons test (Amino Acid Composition A-1 p=0.00494, OCA p<0.016).
Liver sections of all mice were stained for the marker α-smooth muscle actin (aSMA) to identify activated hepatic stellate cells. […]

[1] abbreviates: STAM mice liver sections, A-1 1500 mg/kg twice daily, OCA 30 mg/kg once daily.
Setting [2] is: STAM mice treated 6 to 9 weeks of age, A-1 1500 mg/kg twice daily, OCA 30 mg/kg once daily.

“And” between values parts separate entries of the source, which are not always exact repeats. Equal entries are not always repeated.

On to `CC[C@H]1[C@@H](O)[C@@H]2[C@H](CC[C@]3(C)[C@@H]([C@H](C)CCC(=O)O)CC[C@@H]23)[C@@]2(C)CC[C@@H](O)C[C@@H]12` [OCA, 6α-ethyl-chenodeoxycholic acid], for which, under setting [1], the “Activated hepatic stellate cells (mean positively stained area, α-smooth muscle actin)” value was 1.562+/−0.31% and 1.562%; the “Fibrosis (mean positively stained area, Sirius red)” value was 0.776+/−0.25% and 0.776%. Under setting [2], the “NAFLD Activity: Ballooning Score, mean” value is 0.3+/−0.48 and 0.3; the “NAFLD Activity: Inflammation Score, mean” value is reported as 1.8; the “NAFLD Activity: Steatosis Score, mean” value came out at 0.8. In addition, the “NAFLD Activity Score (NAS), mean” value (STAM mice treated 6 to 9 weeks of age, A-1 1500 mg/kg twice daily, OCA 30 mg/kg once daily, oral) was 2.9+/−0.74 and 2.9. Moreover, where the note is “individual STAM mice”, the “Activated hepatic stellate cells (positively stained area, α-smooth muscle actin): raw data” value is 1.51% and 1.49% (2×) and 1.17% and 1.5% and 1.13% and 2.03% and 1.87% and 1.97% and 1.46%; the “Fibrosis (positively stained area, Sirius red): raw data” value is 1.1% and 1.19% and 0.89% and 0.91% and 0.66% and 0.72% and 0.68% and 0.69% and 0.36% and 0.56%; the “NAFLD Activity Score: raw data” value was 2 (3×) and 4 (2×) and 3 (5×); the “NAFLD Activity: Ballooning Score: raw data” value is 0 (7×) and 1 (3×). Moreover, where the note is “individual STAM mice”, the “NAFLD Activity: Inflammation Score: raw data” value is 1 (4×) and 2 (4×) and 3 (2×); the “NAFLD Activity: Steatosis Score: raw data” value is 1 (8×) and 0 (2×).

Values taken from patent US20210275480A1, “COMPOSITIONS AND METHODS FOR THE REDUCTION OR TREATMENT OF FIBROSIS” (AXCELLA HEALTH INC., priority 2018, published 2021).
